# Experiments:
# [1] = Stability in human plasma; format: in vitro ADME; conditions: after 4 hours, 37° C.
# Description: In order to evaluate the stability to circulating enzymes, test compounds were incubated in human and rat plasma at 37° C. in a thermostated oscillating bath. Each test compound was incubated at μM (50 μM when the samples were analysed by UV/HPLC, 1 or 2 μM when the samples were analysed by LC-MS/MS) concentration for 0, 15, 30 min and 1, 2 and 4 hours. The reaction was stopped placing tubes on ice bath and adding acidified acetonitrile. After centrifugation for 10 minutes at 14000 rpm, an aliquot of the supernatant was diluted with water, filtered with 0.45 μm syringe filters and injected in HPLC-UV or in LC-MS/MS. The percentages of amount remaining at the various times of incubation with respect to initial amount were calculated. The half-life in plasma was also calculated.
# recombinant human HDAC6 = target: T1, recombinant human HDAC6 (Homo sapiens, UniProt Q9UBN7); experiment: Enzymatic screening on recombinant human HDAC6; format: biochemical; conditions: Table 2; read-out: HDAC6 IC50
# T1 sequence (Q9UBN7 1-1215): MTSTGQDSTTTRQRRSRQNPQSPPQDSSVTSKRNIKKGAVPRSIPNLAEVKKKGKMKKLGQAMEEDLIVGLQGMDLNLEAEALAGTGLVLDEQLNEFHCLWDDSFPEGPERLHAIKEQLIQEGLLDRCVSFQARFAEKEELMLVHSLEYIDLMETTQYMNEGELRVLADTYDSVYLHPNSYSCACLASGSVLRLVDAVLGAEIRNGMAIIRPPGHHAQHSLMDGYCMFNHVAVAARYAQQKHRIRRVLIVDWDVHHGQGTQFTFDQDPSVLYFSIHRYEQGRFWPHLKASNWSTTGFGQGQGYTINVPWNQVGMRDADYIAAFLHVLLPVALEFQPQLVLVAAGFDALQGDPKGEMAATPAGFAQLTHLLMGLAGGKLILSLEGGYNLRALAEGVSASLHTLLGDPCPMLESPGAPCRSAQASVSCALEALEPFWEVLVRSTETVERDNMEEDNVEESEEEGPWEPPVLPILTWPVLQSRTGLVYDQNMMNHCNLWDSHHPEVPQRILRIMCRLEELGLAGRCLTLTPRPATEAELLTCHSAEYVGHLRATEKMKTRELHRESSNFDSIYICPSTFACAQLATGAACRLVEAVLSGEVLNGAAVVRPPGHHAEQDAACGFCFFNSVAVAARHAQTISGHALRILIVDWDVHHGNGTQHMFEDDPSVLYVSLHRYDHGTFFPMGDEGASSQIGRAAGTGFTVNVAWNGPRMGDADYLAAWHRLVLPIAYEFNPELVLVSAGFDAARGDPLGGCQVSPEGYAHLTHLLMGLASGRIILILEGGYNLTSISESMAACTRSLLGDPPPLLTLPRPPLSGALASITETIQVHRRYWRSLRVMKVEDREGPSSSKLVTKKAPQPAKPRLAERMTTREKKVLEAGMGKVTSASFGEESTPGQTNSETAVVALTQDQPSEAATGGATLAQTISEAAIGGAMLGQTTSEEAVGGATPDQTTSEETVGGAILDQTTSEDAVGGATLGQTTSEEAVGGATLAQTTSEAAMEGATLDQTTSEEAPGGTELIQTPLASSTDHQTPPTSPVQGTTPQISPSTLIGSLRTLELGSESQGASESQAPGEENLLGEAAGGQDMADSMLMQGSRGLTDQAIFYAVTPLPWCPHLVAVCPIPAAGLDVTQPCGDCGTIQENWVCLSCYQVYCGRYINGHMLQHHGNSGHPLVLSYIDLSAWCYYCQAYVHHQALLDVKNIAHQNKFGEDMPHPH
# Method in brief: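 Buffer for substrate addition: 25 mM Tris-HCl pH 8, 130 mM NaCl, 0.05% Tween-20, 10% glycerol, substrate 2× concentrated (FdL, FdL-Green or trifluoroacetyl-lysine). Recombinant human HDAC was preincubated with compound at 30 °C beforehand, timing isoform-dependent, and the reaction was likewise run at 30 °C.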
# [2] = Stability to Phase I metabolism in human S9 liver fraction; format: in vitro ADME
# Description: Test compounds were incubated in rat and human liver S9 fraction at 37° C. up to 90 minutes in order to evaluate their stability to Phase I metabolism by hepatic enzymes. […] The reaction was stopped placing samples on ice bath and adding acidified acetonitrile. After centrifugation (10 minutes at 14000 rpm) an aliquot of the supernatant was diluted water, filtered with 0.45 μm regenerated cellulose syringe filters and injected in HPLC-UV or in LC-MS/MS. The percentages of the amount remaining at the various incubation times with respect to the initial amount were calculated. The intrinsic clearance was also calculated.
# Stability in rat plasma = format: in vitro ADME; conditions: after 4 hours, 37° C.
# Method in brief: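 Compounds incubated at 37° C in rat or human plasma at 50 μM (UV/HPLC) or 1 or 2 μM (LC-MS/MS) for 0–4 h. Reaction stopped with acidified acetonitrile on ice; percent remaining versus initial amount and plasma half-life calculated.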
# [3] = Stability to Phase I metabolism in rat S9 liver fraction; format: in vitro ADME; conditions: after 90 min, 37° C.
# Method in brief: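 Compounds were incubated with rat or human liver S9 fraction at 37 °C for up to 90 min. Reactions were quenched on ice with acidified acetonitrile and analysed by HPLC-UV or LC-MS/MS. Percent remaining versus time zero and intrinsic clearance were calculated.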
# [4] = system: B 697 promyelocytic cell line; experiment: Cytotoxicity on 697 cell line (CellTiter 96); format: cell-based; conditions: 72 hours incubation, read-out: 697 TOXICITY
# Method in brief: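 Cells seeded (2×10^4/well for 697, 5×10^5/well for PBMCs); compounds added after 24 h at 1–10000 nM (697) or 1.5–10000 nM (PBMCs) and incubated 72 h. Viability read by CellTiter 96 Aqueous One tetrazolium assay of mitochondrial function.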
Compound,residual percentage in human plasma [1] [%],IC50 (recombinant human HDAC6) [nM],"residual percentage in human S9 fraction ([2]; human, 90 min, pH 7.4) [%]",residual percentage in rat plasma (Stability in rat plasma) [%],residual percentage in rat S9 fraction [3] [%],IC50 [4] [nM],"residual percentage in human S9 fraction ([2]; human liver S9 fraction, after 90 min, 37° C.) [%]"
"Cn1c(Sc2c(F)cc(C(=O)NO)cc2F)nnc1-c1ccco1 [comp. 199, 3,5-difluoro-4-[[5-(2-furyl)-4-methyl-1,2,4-triazol-3-yl]sulfanyl]benzenecarbohydroxamic acid]",90,6,75,92,57,–,–
"Cn1c(Sc2c(F)cc(C(=O)NO)cc2F)nnc1-c1ccc(CN2CCOCC2)o1 [comp. 204, 3,5-difluoro-4-[[4-methyl-5-[5-(morpholinomethyl)-2-furyl]-1,2,4-triazol-3-yl]sulfanyl]benzenecarbohydroxamic acid]",79,7,84,89,72,15400,–
"CN(C)Cc1ccc(-c2nnc(Sc3c(F)cc(C(=O)NO)cc3F)n2C)o1 [comp. 206, 4-[[5-[5-[(dimethylamino)methyl]-2-furyl]-4-methyl-1,2,4-triazol-3-yl]sulfanyl]-3,5-difluoro-benzenecarbohydroxamic acid]",92,7,97,88,50,–,–
"CCN(CC)Cc1ccc(-c2nnc(Sc3c(F)cc(C(=O)NO)cc3F)n2C)o1 [comp. 211, 4-[[5-[5-(diethylaminomethyl)-2-furyl]-4-methyl-1,2,4-triazol-3-yl]sulfanyl]-3,5-difluoro-benzenecarbohydroxamic acid]",76,8,59,86,67,–,–
"O=C(NO)c1ccc(Cn2nnnc2-c2ccccc2)cc1 [comp. 215, 4-[(5-phenyltetrazol-1-yl)methyl]benzenecarbohydroxamic acid]",90,–,82,57,65,340,–
"O=C(NO)c1ccc(Cc2nnc(-c3ccccc3)[nH]2)cc1 [comp. 216, 4-[(5-phenyl-4H-1,2,4-triazol-3-yl)methyl]benzenecarbohydroxamic acid]",91,–,84,89,62,288,–
"CN(c1ccc(-c2nnc(Sc3c(F)cc(C(=O)NO)cc3F)s2)cc1)S(C)(=O)=O [compound 187, 3,5-difluoro-4-[[5-[4-[methyl(methylsulfonyl)amino]phenyl]-1,3,4-thiadiazol-2-yl]sulfanyl]benzenecarbohydroxamic acid]",92,55,54,101,17,–,–
"O=C(NO)c1ccc(Cc2noc(-c3ccnc(N4CCOCC4)c3)n2)cc1 [compound 193, 4-[[5-(2-morpholino-4-pyridyl)-1,2,4-oxadiazol-3-yl]methyl]benzenecarbohydroxamic acid]",100,6,71,81,63,–,–
"O=C(NO)c1cc(F)c(Cc2noc(-c3ccccc3)n2)c(F)c1 [compound 194, 3,5-difluoro-N-hydroxy-4-((5-phenyl-1,2,4-oxadiazol-3-yl)methyl)benzamide]",99,11,29,89,3,–,–
"O=C(NO)c1cc(F)c(Sc2nnc(-c3cncc(Br)c3)s2)c(F)c1 [compound 196, 4-[[5-(5-bromo-3-pyridyl)-1,3,4-thiadiazol-2-yl]sulfanyl]-3,5-difluoro-benzenecarbohydroxamic acid]",89,53,26,99,23,–,–
"O=C(NO)c1cc(F)c(Cc2nnc(-c3cncc(N4CCOCC4)c3)s2)c(F)c1 [compound 197, 3,5-difluoro-4-[[5-(5-morpholino-3-pyridyl)-1,3,4-thiadiazol-2-yl]methyl]benzenecarbohydroxamic acid]",96,10,86,82,62,–,–
"O=C(NO)c1cc(F)c(Cc2nnc(-c3ccccc3)s2)c(F)c1 [compound 198, 3,5-difluoro-N-hydroxy-4-((5-phenyl-1,3,4-thiadiazol-2-yl)methyl)benzamide]",95,5,51,63,6,–,–
"COCCN(CCOC)c1cncc(-c2nc(Cc3c(F)cc(C(=O)NO)cc3F)no2)c1 [compound 200, 4-[[5-[5-[bis(2-methoxyethyl)amino]-3-pyridyl]-1,2,4-oxadiazol-3-yl]methyl]-3,5-difluoro-benzenecarbohydroxamic acid]",102,8,37,96,32,–,–
"O=C(NO)c1cc(F)c(Cc2noc(-c3cncc(N4CC5(COC5)C4)c3)n2)c(F)c1 [compound 201, 3,5-difluoro-4-[[5-[5-(2-oxa-6-azaspiro[3.3]heptan-6-yl)-3-pyridyl]-1,2,4-oxadiazol-3-yl]methyl]benzenecarbohydroxamic acid]",88,16,–,95,34,–,75

# From patent US11351178B2, “Selective HDAC6 inhibitors” (ITALFARMACO S.P.A., priority 2017, dated 2022)
